Data as given in patent publication US11197861B2, “Methods of screening BRaf inhibitors for treating cutaneous reactions” (Lutris Pharma Ltd., priority 2016, dated 2021).

Tested on: MAPK (ERK)
Experiment: Activation of MAPK (ERK) in human normal keratinocytes (HEKa), Western blot of phospho-ERK / total ERK
Assay type: cell-based
Conditions: human primary keratinocytes (HEKa), 2 hours treatment
Protocol: Human normal Keratinocyte cells HEKa were seeded in 10 cm dishes (300,000 cells/dish) and incubated overnight at 37° C., 5% CO2. Next morning, the cells were starved for 2 hours and then treated with the various inhibitors (or control treatments) for 2 hours. Post incubation the cells were lyzed with RIPA Buffer and the protein extracts were analyzed by Western-Blot for detection of phospho ERK and total ERK2, by use of suitable antibodies. Untreated and 0.1% DMSO treated cells were used as negative control. Growth factors mix (HKGS) was used as positive control (Gibco CAT #: S0015).
Western Blot: 7.5 μg of total extract was loaded on 10% or 12% acrylamide gels. Following transfer, the membranes were blocked with TBST/5% skim milk and then incubated with Mouse anti phospho ERK (1:1000 in TBST 5% BSA, ON at 4° C.) and goat anti Mouse HRP (1:10,000 in TBST 5% BSA, 1 hour RT). The membranes were exposed using SuperSignal West Pico Chemiluminescent Substrate. The HRP was then inactivated by incubating the membranes for 1 hour with 0.5% Sodium azide. Following washes and ECL exposure in order to ensure absence of signal, the membranes were reblocked for 15 min with TBST/5% skim milk and then incubated with Rabbit anti total ERK2 (1:500 in TBST 5% BSA, ON at 4° C.), goat anti Rabbit HRP (1:5,000 in TBST 5% BSA, 1 hour RT) and finally exposed using the SuperSignal West Pico Chemiluminescent Substrate. The resulting images (films) were scanned and the signal were quantified using ImageJ software. BRaf inhibitors used in the experiments included, C-1, C-15, C-19 C-A or vemurafenib, at concentrations of 0.3 μM; 1 μM or 3 μM. ZM (ZM336372) a c-Raf inhibitor, which serves in the present experiments as a Braf activator and was used as a control.

[1] = increasing amounts 0.3 μM, 1 μM or 3 μM, FIGS. 1-3

| SMILES | activation of ERK (increase in relative amount of Phosphorylated ERK) (1 μM, FIGS. 4A-C) | activation of ERK (increase in relative amount of Phosphorylated ERK) [1] |
| --- | --- | --- |
| CNc1ncc2cc(-c3c(C)ccc4c(Nc5cc(C(C)(C)C)nn5C)nccc34)ccc2n1 [C-19] | activation of ERK | activation of ERK |
| CNc1ncc2cc(-c3c(C)ccc4c(Nc5cccc(OC(F)(F)F)c5)nc(C)nc34)ccc2n1 [C-A] | activation of ERK | activation of ERK |
| Cc1ccc2c(Nc3ccc(Cl)cc3)nccc2c1Nc1ncccc1-c1ncnc2[nH]cnc12 [C-1] | activation of ERK | activation of ERK |
| Cc1ccc(NC(=O)c2cccc(N(C)C)c2)cc1NC(=O)c1ccc(O)cc1 [ZM 336372] | activation of ERK | activation of ERK |
| C#Cc1cccc(Nc2nccc3c(Nc4ncccc4-c4cc(NC)ncn4)c(C)ccc23)c1 [C-15] | activation of ERK | activation of ERK |
